One may read the IC50 as the concentration at which inhibition is half-maximal. A word on the EC50: it is the concentration that produces a half-maximal response.

The values that follow come from patent US9809598B2 (Merck Patent GmbH, priority 2014, dated 2017).

One assay addresses T1, PARP-1 (Homo sapiens, UniProt P09874).
T1 construct: purchased Enzo Life Sciences GmbH, Lörrach, Germany
In words: PARP-1 autoparsylation assay (HTRF). It counts as biochemical. The conditions noted are these: His-tagged Parp-1, autoparsylation HTRF. The gist of the method:
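HTRF emission ratio reports biotin-ADP-ribose self-transfer onto His-tagged PARP-1, with biotinylated NAD/NAD as co-substrate, sensed via cryptate anti-His and Xlent-streptavidin.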

A further assay has as its system Tankyrases. The conditions noted are these: read-out: EC50 [M] TNKS cellular assay; DLD1 cells, 24 hours, Axin2 increase.
For the next assay, the target named is T2, TNKS2 (Homo sapiens, UniProt Q9H2K2).
T2 construct: GST-tagged Tnks-2 (873-1166 aa, prepared in-house); made in house
Nature of the assay: TNKS2 activity ELISA (autoparsylation assay). The conditions noted are these: GST-tagged Tnks-2 (873-1166 aa); read-out: IC50 [M] TNKS2 ELISA. It counts as biochemical. The gist of the method: (§1)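 Autoparsylation ELISA: biotinylated NAD serves as co-substrate for plate-bound GST-TNKS1/TNKS2, incubated with test compounds. Readout is HRP luminescence after streptavidin-HRP binding, referenced to the no-inhibitor reaction, from which IC50 values are derived.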
In general terms: In an ELISA, binding on a coated surface is turned into a signal by an enzyme label.

Another assay deals with T3, TNKS1 (Homo sapiens, UniProt O95271).
T3 construct: GST-tagged Tnks-1 (1023-1327 aa, prepared in-house); made in house
Nature of the assay: TNKS1 activity ELISA (autoparsylation assay). It counts as biochemical. The conditions noted are these: GST-tagged Tnks-1 (1023-1327 aa). The procedure, abridged:
as §1

Counter-ions that a name gives are not always drawn.

T2 sequence (Q9H2K2 873-1166): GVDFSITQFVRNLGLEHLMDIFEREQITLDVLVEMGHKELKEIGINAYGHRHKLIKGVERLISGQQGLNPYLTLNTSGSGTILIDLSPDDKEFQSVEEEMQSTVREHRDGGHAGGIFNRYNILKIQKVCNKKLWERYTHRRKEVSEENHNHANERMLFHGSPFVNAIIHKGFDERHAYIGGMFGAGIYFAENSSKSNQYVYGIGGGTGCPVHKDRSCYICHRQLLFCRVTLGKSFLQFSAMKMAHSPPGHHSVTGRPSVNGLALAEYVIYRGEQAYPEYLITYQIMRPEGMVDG
T3 sequence (O95271 1023-1327): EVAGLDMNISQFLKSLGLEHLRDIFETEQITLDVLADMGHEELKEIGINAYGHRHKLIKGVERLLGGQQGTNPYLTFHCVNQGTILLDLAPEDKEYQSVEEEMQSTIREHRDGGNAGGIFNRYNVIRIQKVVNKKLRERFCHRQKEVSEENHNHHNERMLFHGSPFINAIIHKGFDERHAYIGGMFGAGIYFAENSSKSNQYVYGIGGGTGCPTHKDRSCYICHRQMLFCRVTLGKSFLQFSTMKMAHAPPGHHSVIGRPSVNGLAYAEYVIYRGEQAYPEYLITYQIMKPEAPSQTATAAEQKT
T1 sequence (P09874 whole entry): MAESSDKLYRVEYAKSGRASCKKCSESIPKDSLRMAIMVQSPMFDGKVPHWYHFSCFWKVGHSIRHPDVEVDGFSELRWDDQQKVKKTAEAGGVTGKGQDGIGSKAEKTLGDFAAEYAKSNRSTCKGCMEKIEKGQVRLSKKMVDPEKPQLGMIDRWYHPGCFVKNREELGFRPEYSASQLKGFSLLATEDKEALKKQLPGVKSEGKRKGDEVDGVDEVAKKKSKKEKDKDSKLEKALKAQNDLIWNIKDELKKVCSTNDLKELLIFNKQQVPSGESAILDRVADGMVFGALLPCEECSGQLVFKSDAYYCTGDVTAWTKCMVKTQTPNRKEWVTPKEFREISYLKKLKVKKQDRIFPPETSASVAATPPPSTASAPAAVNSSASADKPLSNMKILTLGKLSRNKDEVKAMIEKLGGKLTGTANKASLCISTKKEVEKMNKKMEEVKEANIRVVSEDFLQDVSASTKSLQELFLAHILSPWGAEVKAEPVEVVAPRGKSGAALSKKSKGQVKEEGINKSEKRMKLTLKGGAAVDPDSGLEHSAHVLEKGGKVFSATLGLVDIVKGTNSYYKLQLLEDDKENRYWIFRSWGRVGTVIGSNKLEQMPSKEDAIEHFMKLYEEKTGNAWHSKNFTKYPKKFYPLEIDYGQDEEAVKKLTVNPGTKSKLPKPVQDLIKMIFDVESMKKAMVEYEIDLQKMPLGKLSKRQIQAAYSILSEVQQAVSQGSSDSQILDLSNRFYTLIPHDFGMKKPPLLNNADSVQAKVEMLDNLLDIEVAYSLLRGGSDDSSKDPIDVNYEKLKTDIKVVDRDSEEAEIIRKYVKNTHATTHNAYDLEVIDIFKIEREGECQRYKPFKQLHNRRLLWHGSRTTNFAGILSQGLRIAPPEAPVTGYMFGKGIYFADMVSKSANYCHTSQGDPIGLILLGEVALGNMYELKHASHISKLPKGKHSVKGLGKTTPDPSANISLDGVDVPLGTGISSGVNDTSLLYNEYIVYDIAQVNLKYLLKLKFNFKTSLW

`COc1ccc(C(=O)C2CCN(C(=O)CCCc3nn4c(C)ccc4c(=O)[nH]3)CC2)cc1C` [Compound C154, 2-{4-[4-(4-Methoxy-3-methyl-benzoyl)-piperidin-1-yl]-4-oxo-butyl}-7-methyl-3H-pyrrolo[2,1-f][1,2,4]triazin-4-one]: the IC50 against PARP-1 amounted to 610 nM; at TNKS2 it was 1.3e-10 M; against TNKS1, 0.16 nM. Also, the EC50 in the assay on Tankyrases was determined as 9.7e-10 M.
In the case of `Cc1cc2c(=O)[nH]c(CCCC(=O)N3CCC(Oc4ccc(C#N)cc4)CC3)nn2c1` [Compound C163, 4-{1-[4-(6-Methyl-4-oxo-3,4-dihydro-pyrrolo[2,1-f][1,2,4]triazin-2-yl)-butyryl]-piperidin-4-yloxy}-benzonitrile], the IC50 stood at 1300 nM against PARP-1, 2.5e-08 M on TNKS2 and 21 nM at TNKS1. In addition, the EC50 in the assay on Tankyrases came out at 2e-07 M.
Consider `Cn1cc(C(=O)C2CCN(C(=O)CCCc3nn4c(F)c(F)cc4c(=O)[nH]3)CC2)cn1` [Compound C238, 6,7-Difluoro-2-{4-[4-(1-methyl-1H-pyrazole-4-carbonyl)-piperidin-1-yl]-4-oxo-butyl}-3H-pyrrolo[2,1-f][1,2,4]triazin-4-one], for which the IC50 on PARP-1 turned out to be 4100 nM; on TNKS2, 1.5e-09 M; against TNKS1 it was 1.5 nM. The EC50 with Tankyrases worked out at 5.6e-08 M.
The like results for `Cn1ccc2c(=O)[nH]c(CCCC(=O)N3CCC(C(=O)c4ccc(F)c(F)c4)CC3)nc21` [Compound C248, 2-{4-[4-(3,4-Difluoro-benzoyl)-piperidin-1-yl]-4-oxo-butyl}-7-methyl-3,7-dihydro-pyrrolo[2,3-d]pyrimidin-4-one] were, in that order, 2400 nM, 2.3e-10 M, 0.7 nM and 8.7e-09 M.
In the same order, the values of `COc1ccc(C(=O)C2CCN(C(=O)CCCc3nc4c(cnn4C)c(=O)[nH]3)CC2)cc1C` [Compound C49, 6-{4-[4-(4-Methoxy-3-methyl-benzoyl)-piperidin-1-yl]-4-oxo-butyl}-1-methyl-1,5-dihydro-pyrazolo[3,4-d]pyrimidin-4-one] are 9900 nM, 1.4e-10 M, 0.16 nM and 3.1e-10 M.
For `Cc1cc2c(=O)[nH]c(CCCC(=O)N3CCC(C(=O)c4cnn(C(C)C)c4)CC3)cn2n1` [Compound C217, 6-{4-[4-(1-Isopropyl-1H-pyrazole-4-carbonyl)-piperidin-1-yl]-4-oxo-butyl}-2-methyl-5H-pyrazolo[1,5-a]pyrazin-4-one], the figures for the IC50 against PARP-1, at TNKS2 and against TNKS1 were 6600 nM, 2.7e-09 M and 2 nM, respectively. Further, the EC50 in the assay on Tankyrases is 3e-08 M.
On to `CCn1cc(C(=O)C2CCN(C(=O)CCCc3nc4c(ccn4C)c(=O)[nH]3)CC2)cn1` [Compound C243, 2-{4-[4-(1-Ethyl-1H-pyrazole-4-carbonyl)-piperidin-1-yl]-4-oxo-butyl}-7-methyl-3,7-dihydro-pyrrolo[2,3-d]pyrimidin-4-one], for which the values for the IC50 against PARP-1, at TNKS2 and against TNKS1 were 4200 nM, 2.2e-10 M and 0.47 nM, respectively. In addition, the EC50 in the assay on Tankyrases came to 3.4e-08 M.
`COc1ccc(C(=O)C2CCN(C(=O)CCCc3nn4cc(F)cc4c(=O)[nH]3)CC2)cn1` [Compound C170, 6-Fluoro-2-{4-[4-(6-methoxy-pyridine-3-carbonyl)-piperidin-1-yl]-4-oxo-butyl}-3H-pyrrolo[2,1-f][1,2,4]triazin-4-one]: the IC50 at PARP-1 is 2800 nM; on TNKS2 it was 9.9e-10 M; at TNKS1, 0.67 nM. Further, the EC50 with Tankyrases is 1.9e-08 M.
With `COc1ccc(C(=O)C2CCN(C(=O)CCCc3nn4cc(C)cc4c(=O)[nH]3)CC2)cc1C` [Compound C165, 2-{4-[4-(4-Methoxy-3-methyl-benzoyl)-piperidin-1-yl]-4-oxo-butyl}-6-methyl-3H-pyrrolo[2,1-f][1,2,4]triazin-4-one], the IC50 is 2100 nM on PARP-1, 2.2e-10 M on TNKS2 and 0.22 nM against TNKS1. In addition, the EC50 in the assay with Tankyrases was 1.7e-09 M.
`Cc1scc2c(=O)[nH]c(CCCC(=O)N3CCC(C(=O)c4ccc(F)cc4)CC3)nc12` [Compound C119, 2-{4-[4-(4-Fluoro-benzoyl)-piperidin-1-yl]-4-oxo-butyl}-7-methyl-3H-thieno[3,4-d]pyrimidin-4-one]: the IC50 at PARP-1 stood at 850 nM; on TNKS2, 6.2e-10 M; against TNKS1, 0.9 nM. The EC50 in the assay with Tankyrases amounted to 3.3e-08 M.
In the case of `N#Cc1ccc(OC2CCN(C(=O)CCCc3cn4cccc4c(=O)[nH]3)CC2)cc1` [Compound C5, 4-{1-[4-(1-Oxo-1,2-dihydro-pyrrolo[1,2-a]pyrazin-3-yl)-butyryl]-piperidin-4-yloxy}-benzonitrile], the figures for the IC50 on PARP-1, on TNKS2 and against TNKS1 were 4300 nM, 8.8e-09 M and 0.13 nM, respectively. The 50% effective concentration (EC50) in the assay on Tankyrases came to 1.2e-07 M.
For the compound `CCn1cc(C(=O)C2CCN(C(=O)CCCc3nn4cc(F)cc4c(=O)[nH]3)CC2)cn1` [Compound C215, 2-{4-[4-(1-Ethyl-1H-pyrazole-4-carbonyl)-piperidin-1-yl]-4-oxo-butyl}-6-fluoro-3H-pyrrolo[2,1-f][1,2,4]triazin-4-one], the results for the IC50 at PARP-1, at TNKS2 and against TNKS1 were 5000 nM, 1.4e-09 M and 1.5 nM, respectively. In the assay with Tankyrases, the EC50 worked out at 1.8e-08 M.
With `N#Cc1ccc(OC2CCN(C(=O)CCCc3nc4c(c(=O)[nH]3)COCC4)CC2)cc1` [Compound C197, 4-{1-[4-(4-Oxo-3,5,7,8-tetrahydro-4H-pyrano[4,3-d]pyrimidin-2-yl)-butyryl]-piperidin-4-yloxy}-benzonitrile], the values for the IC50 against PARP-1, at TNKS2 and against TNKS1 were 3200 nM, 2.4e-07 M and 560 nM, respectively. The EC50 with Tankyrases turned out to be 3.6e-06 M.
On to `Cc1scc2c(=O)[nH]c(CCCC(=O)N3CCC(c4cnc(N)c(-c5ncccn5)c4)CC3)nc12` [Compound C116, 2-[4-(6-Amino-5-pyrimidin-2-yl-3′,4′,5′,6′-tetrahydro-2′H-[3,4′]bipyridinyl-1′-yl)-4-oxo-butyl]-7-methyl-3H-thieno[3,4-d]pyrimidin-4-one], for which the values for the IC50 against PARP-1, on TNKS2 and at TNKS1 were 970 nM, 2.1e-10 M and 0.37 nM, respectively. In the assay on Tankyrases, the EC50 worked out at 3.6e-09 M.
As to `O=C(c1ccc(Cl)cc1)C1CCN(C(=O)CCCc2nc3c(c(=O)[nH]2)COCC3)CC1` [Compound C247, 2-{4-[4-(4-Chloro-benzoyl)-piperidin-1-yl]-4-oxo-butyl}-3,5,7,8-tetrahydro-pyrano[4,3-d]pyrimidin-4-one trifluoroacetate], the IC50 against PARP-1 worked out at 3500 nM; on TNKS2, 6.6e-10 M; at TNKS1, 3.3 nM. Further, the EC50 in the assay on Tankyrases stood at 2.1e-08 M.
Turning to `Cc1ccc2c(=O)[nH]c(CCCC(=O)N3CCC(C(=O)c4ccc(C(C)(C)O)cc4)CC3)nn12` [Compound C155, 2-(4-{4-[4-(1-Hydroxy-1-methyl-ethyl)-benzoyl]-piperidin-1-yl}-4-oxo-butyl)-7-methyl-3H-pyrrolo[2,1-f][1,2,4]triazin-4-one], the IC50 came out at 600 nM at PARP-1, 3.8e-10 M at TNKS2 and 0.57 nM on TNKS1. Moreover, the EC50 in the assay on Tankyrases was 1.6e-08 M.
As for `Cn1ncc2c(=O)[nH]c(CCCC(=O)N3CCC(c4nnc(-c5ccccc5)o4)CC3)nc21` [Compound C46, 1-Methyl-6-{4-oxo-4[4-(5-phenyl-[1,3,4]oxadiazol-2-yl)-piperidin-1-yl]-butyl}-1,5-dihydro-pyrazolo[3,4-d]pyrimidin-4-one], the figures for the IC50 on PARP-1, at TNKS2 and at TNKS1 were 7200 nM, 2.4e-09 M and 2.9 nM, respectively. The EC50 in the assay with Tankyrases turned out to be 6.6e-08 M.
The like results for `COc1ccc(C(=O)C2CCN(C(=O)CCCc3nc4c(C)csc4c(=O)[nH]3)CC2)cc1F` [Compound C55, 2-{4-[4-(3-Fluoro-4-methoxy-benzoyl)-piperidin-1-yl]-4-oxo-butyl}-7-methyl-3H-thieno[3,2-d]pyrimidin-4-one] were, in that order, 400 nM, 1.2e-10 M, 0.18 nM and 1.9e-09 M.
With `Cc1ccc2c(=O)[nH]c(CCCC(=O)N3CCC(C(=O)c4ccc(F)cc4)CC3)nn12` [Compound C153, 2-{4-[4-(4-Fluoro-benzoyl)-piperidin-1-yl]-4-oxo-butyl}-7-methyl-3H-pyrrolo[2,1-f][1,2,4]triazin-4-one], the results for the IC50 against PARP-1, on TNKS2 and against TNKS1 were 2000 nM, 1.6e-10 M and 0.17 nM, respectively. Further, the EC50 in the assay with Tankyrases came to 1.7e-09 M.
As for `COc1ccc(C(=O)C2CCN(C(=O)CCCc3nn4cc(F)cc4c(=O)[nH]3)CC2)cc1F` [Compound C169, 6-Fluoro-2-{4-[4-(3-fluoro-4-methoxy-benzoyl)-piperidin-1-yl]-4-oxo-butyl}-3H-pyrrolo[2,1-f][1,2,4]triazin-4-one], the results for the IC50 against PARP-1, at TNKS2 and against TNKS1 were 2200 nM, 2.2e-10 M and 0.17 nM, respectively. The EC50 in the assay with Tankyrases amounted to 2.5e-09 M.
As to `COc1ccc(C(=O)C2CCN(C(=O)CCCc3nn4cccc4c(=O)[nH]3)CC2)cc1` [Compound C36, 2-{4-[4-(4-Methoxy-benzoyl)-piperidin-1-yl]-4-oxo-butyl}-3H-pyrrolo[2,1-f][1,2,4]triazin-4-one], the IC50 was determined as 3500 nM against PARP-1, 2.8e-10 M on TNKS2 and 0.39 nM against TNKS1. Further, the EC50 with Tankyrases was 4.1e-09 M.
